Measured values as given in patent publication US11248022B2, “Glypican-3 peptide reagents and methods” (THE REGENTS OF THE UNIVERSITY OF MICHIGAN, priority 2017, dated 2022).
Values joined by “and” are separate entries in the source; they are usually repeats but may differ in a detail not shown here. Equal entries are not always repeated. Ends that are not written are not given here.

Assays:
[1] = test system: GPC3 positive tumor (from Hep3B cells); assay: In vivo whole body fluorescent imaging of HCC xenograft; details: 2 hours post injection
Method: (§2) Mice bearing HCC xenograft tumor (arrowheads) were i.v. injected with 250 μL of 300 μM near NIR GPC3 targeting peptide ALL*-Cy5.5, scrambled control peptide QLE*-Cy5.5 and unlabeled Cy5.5 free dye alone. ALL*-Cy5.5 was also injected in mice bearing GPC3 negative tumor (from SK Hep-1 cells, arrows) as control of EPR effect. Pre-injection imaging confirmed no autofluorescence was present.

Hep3B cells = assay: Apparent dissociation constant on Hep3B cells by flow cytometry; format: binding, human
Method: The apparent dissociation constant (kd) was measured for the optimized GPC3 peptide to Hep3B cells to provide an assessment of peptide binding affinity. The ALL*-Cy5.5 peptide reagent was serially diluted in PBS at concentrations ranging from 0 to 200 nM in 25 nM increments and incubated with Hep3B cells. The mean fluorescence intensities was measured on flow cytometry. The equilibrium dissociation constant kd=1/ka was calculated by performing a least squares fit of the data to the non-linear equation I=(I0+Imaxka[X])/([…]). I0and Imax are the initial and maximum fluorescence intensities, corresponding to no peptide and at saturation, respectively, and [X] represents the concentration of the bound peptide.

[2] = test system: HCC xenograft tumor overexpressing GPC3; assay: In vivo handheld dual axes confocal endomicroscope imaging; design: species or system mice
Method: GPC3 expression from human HCC xenograft tumors was evaluated in real time by collecting optical sections in vivo using a handheld 5.5 mm diameter dual axes confocal endomicroscope. A solid-state diode laser (300 mW, CNI Laser Inc.) provided illumination at λex=671 nm. A parabolic mirror focused the illumination and collection beams to overlap below the tissue surface with lateral and axial resolution of 2 and 5 μm, respectively. A compact, 3D monolithic scanner located in the distal tip provided large vertical displacements and wide angular deflections to produce images in the vertical (XZ) and horizontal (XY) planes with a FOV of 1000×430 and 1000×1000 μm^2, respectively. NIR fluorescence is collected and passes through a band pass filter (FF01-716/40-25, Semrock) that transmits from 696-736 nm with >93% efficiency for detection with a photomultiplier tube (PMT, H7422PA-40, Hamamatsu) detector. The peptides were injected via the tail vain, and dissected away the skin overlying the tumor to gain access. The distal tip of the endomicroscope was placed in contact with the tumor using a drop of saline to couple the light. Laser power <2 mW on the tissue was used to avoid photobleaching. NIR fluorescence images were collected at 5 frames per sec. 3D volumetric images were reconstructed from a series of images collected in the vertical plane using Amira software (ver 5.4.3, FEI Corporation).
The probe was small enough to be comfortably held in the surgeon's hand during surgery, FIG. 12A, for in vivo imaging of biomarker expression. Its diameter was 5.5 mm and delivered 671 nm near-infrared laser at 2 mW. Mouse carrying HCC xenograft tumor overexpressing GPC3 was first injected with 250 μL 300 μM ALL*-Cy5.5 peptide intravenously and after 2 hours the probe was held in contact with exposed subcutaneous tumor to acquire in vivo peptide binding images, FIG. 12B. Images were collected in either the vertical or horizontal plane with 430 μm depth or 1000×1000 μm^2 area, respectively, at 5 frames per second. With measured lateral resolution of 2.49 μm and axial resolution of 4.98 μm, each peptide stained cell can be clearly seen (arrows). […] Strong uptake (arrows) of ALL*-Cy5.5 in tumor was captured on optical sections collected in the horizontal (1000×1000 μm^2, Video 1) FIG. 12C and vertical (1000×430 μm^2, Video 2) FIG. 12D planes, respectively. A series of vertical cross-section images were reconstructed into 3D MIP volume (Video 3), FIG. 12E.

[3] = test system: GPC3 positive tumor (from Hep3B cells); details: mouse, in vivo, iv
Method: as §2

GPC3 = target: T1, GPC3 (Homo sapiens, UniProt P51654); assay: siRNA knockdown of GPC3 in Hep3B cells, confocal fluorescence; format: cell-based
T1 construct: endogenous in cells; host or cells: Hep3B human HCC cells (siCL control vs siGPC3 knockdown); also HepG2; SK-Hep1 as GPC3-negative control
Method: (§1) FIGS. 6-2A-Q show validation of specific peptide binding to cells in vitro. […] The Hep3B versus SK-Hep1 difference was also larger for antibody than QLE (P=2.3×10^−8, 6.0-fold larger). Intensity was measured with 6 replicates per condition and fitted to an ANOVA model with terms for 9 means to log-transformed data. […] We further validated specific peptide binding to GPC3 using siRNA knockdown. […] Q) Quantified fluorescence intensities. The siCL vs siGPC3 difference was 7.4 times bigger for ALL than the same difference for QLE (P=7.8×10^−5), and the difference for antibody was 8.9 times bigger than for QLE (P=2.5×10^−5), by ANOVA on log-transformed data. Results are an average of 6 images collected independently.
The specificity of lead candidate peptide reagent binding was validated by siRNA knockdown of GPC3 in human HCC cells. The cells were transfected with siRNA to knockdown cell surface expression of GPC3. […] These cells were transfected with non-targeting siRNA (siCL) for use as control. […] FIG. 6-1D,E show ˜4-fold reduction in fluorescence intensity with both the peptide reagent and anti-GPC3 antibody, respectively, for Hep3B cells transfected with siRNA (siGPC3) to knock down GPC3 expression. […] FIG. 6-2M, N, O and P show the same result as original FIG. 6-1A, B, D and E.

[4] = Histology of vital organs post-peptide administration (acute toxicity); format: in vivo, mice; details: 2 hours post-injection; brain, heart, lung, liver, spleen, kidney, stomach, intestine, cecum, colon
Method: Vital organs were harvested post peptide administration in mice to evaluate acute toxicity of peptide probe with histology observation. Mice bearing human HCC xenograft tumors were sacrificed 2 hours post-injection of ALL*-Cy5.5.

HepG2 human HCC cells = assay: Confocal microscopy of peptide binding to HepG2 cells; format: cell-based
Method: as §1
On confocal microscopy, it was shown that ALL*-Cy5.5 binds to the surface (arrows) of cells with different levels of GPC3 expression. […] GPC3 is highly overexpressed in Hep3B cell cytosol and membrane while moderately expressed in HepG2 cells. No GPC3 expression is observed in SK-Hep1 cells. Tubulin serves as loading control for either cytosol or membrane fractions loaded.

T1 sequence (P51654 25-554): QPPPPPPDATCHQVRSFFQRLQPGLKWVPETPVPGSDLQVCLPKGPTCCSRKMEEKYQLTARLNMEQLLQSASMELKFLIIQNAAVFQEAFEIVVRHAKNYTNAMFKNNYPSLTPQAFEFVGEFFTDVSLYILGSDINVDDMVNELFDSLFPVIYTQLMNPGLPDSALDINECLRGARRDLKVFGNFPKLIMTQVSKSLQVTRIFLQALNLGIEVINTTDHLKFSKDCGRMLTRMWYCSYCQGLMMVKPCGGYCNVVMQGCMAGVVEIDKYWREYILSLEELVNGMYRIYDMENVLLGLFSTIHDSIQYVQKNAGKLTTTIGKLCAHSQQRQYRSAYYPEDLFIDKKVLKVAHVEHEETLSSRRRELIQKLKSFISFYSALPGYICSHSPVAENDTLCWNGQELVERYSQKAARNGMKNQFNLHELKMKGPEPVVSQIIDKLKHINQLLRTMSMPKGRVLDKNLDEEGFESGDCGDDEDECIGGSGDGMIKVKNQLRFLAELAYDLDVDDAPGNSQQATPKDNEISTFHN

ALLANHEELFQT (SEQ ID NO: 1) peptide labeled with Cy5.5 via a GGGSK linker on the C-terminus (ALLANHEELFQTGGGSK-{Cy5.5}) [ALL*-Cy5.5]
mean tumor signal vs scrambled peptide, GPC3 negative tumor and free dye [1]: significantly higher | target-to-background (T/B) ratio ([1]; mean±SD): 3.91±0.58 | Kd (Hep3B cells): 71 nM and 71.3 nM | fluorescent signal relative to QLE*-Cy5.5 ([2]; 2 hours after i.v. injection): 2.9 fold | fluorescent intensity at tumor ([2]; 2 hours after i.v. injection, n=8): 47±13 | uptake/staining in tumor on optical sections ([2]; horizontal and vertical planes): Strong uptake | time of peak uptake/signal post injection [3]: 2 h | siCL vs siGPC3 difference relative to the same difference for QLE (GPC3; ANOVA on log-transformed data): 7.4 times | fluorescence intensity remaining (% of siCL control) (GPC3; GPC3 knockdown cells): 27% | binding to cell surface (GPC3; Hep3B cells transfected with non-targeting siRNA (siCL)): strong binding | reduction in fluorescence intensity (GPC3; Hep3B cells transfected with siGPC3 vs siCL): ~4 fold | fluorescence intensity (GPC3; siCL treated Hep3B control cells): 54.3±6.0 | fluorescence intensity (GPC3; siGPC3 knockdown Hep3B cells): 14.7±1.5 | acute peptide toxicity on histology of vital organs [4]: No signs of acute peptide toxicity | intensity difference HepG2 versus SK-Hep1 relative to the same difference for QLE* (HepG2 human HCC cells; 6 replicates, log-transformed data): 3.3 fold | fluorescence intensity from binding to cell surface (HepG2 human HCC cells; HepG2 cells, confocal microscopy): strong fluorescence intensity
